Read-outs that look alike come from different tables or passages of the source.
Experiments:
human recombinant BACE1 = human recombinant BACE1 (Homo sapiens (Human), UniProt P56817); test: In vitro enzymatic BACE1 FRET assay; type: biochemical; conditions: read-out: IC50 IP (μM) BACE1 enzyme
Protocol: (§1) These recombinant proteins were further purified using Ni-NTA affinity chromatography (Qiagen). […] This assay is effectively started by the addition of FRET substrate (50 nM) and the combination is incubated for one hour. The FRET assay is terminated by addition of Tris buffer, which raises the pH to neutrality, and the fluorescence is determined. The FRET substrate is a peptide with commercially available fluorophore and quencher, on opposite sides of the BACE cleavage site. Proteolytic cleavage of the FRET substrate releases quenching of fluorescence (excitation 488 nm and emission 590 nm).

Recombinant Cat D = Recombinant Cat D (Homo sapiens (Human), UniProt P07339); test: In vitro enzymatic Cathepsin D (Cat D) FRET assay; type: biochemical; conditions: read-out: IC50 IP (μM) CatD
Protocol: In Vitro Enzymatic Cathepsin D (Cat D) FRET (Fluorescence Resonance Energy Transfer) Assay
Recombinant Cat D was expressed in CHO cells. The assay buffer for CathepsinD is 0.05 M citrate pH 3.5, 10% DMSO final, 5 mM CHAPS. […] The assays are effectively started by the addition of different FRET substrates (20 nM for Cat D) and the combination is incubated for one hour. The FRET assay is terminated with by addition of Tris buffer, which raises the pH to neutrality, and the fluorescence is determined. The FRET substrate is a peptide with commercially available fluorophore and quencher, on opposite sides of the BACE cleavage site. The Cat D substrate peptide sequence is based on sequence #1 of Table 1 from Gulnik et al. FEBS Letters v413 p 379-384 1997. Proteolytic cleavage of the FRET substrate releases quenching of fluorescence (Cat D excitation 500 nm and emission 580 nm).

human recombinant BACE2 = human recombinant BACE2 (Homo sapiens (Human), UniProt Q9Y5Z0); test: In vitro enzymatic BACE2 FRET assay; type: biochemical; conditions: read-out: IC50 IP (μM) BACE2 enzyme
Protocol: as §1

[1] = test system: Aβ40 in conditioned medium of cells stably expressing Amyloid Precursor Protein (APP); test: In vitro BACE-1 cell-based assay (Aβ40 sandwich ELISA); conditions: read-out: IC50 IP (μM) BACE1 cell
Protocol: In Vitro BACE-1 Cell-Based Assay
The cell-based assay measures inhibition or reduction of Aβ40 in conditioned medium of test compound treated cells expressing amyloid precursor protein. Cells stably expressing Amyloid Precursor Protein (APP) were plated at a density of 40K cells/well in 96 well plates (Costar). The cells were cultivated for 24 hours at 37° C. and 5% CO2 in DMEM supplemented with 10% FBS. The test compounds were then added to cells in 10-point dose response concentrations with the starting concentration being either 100 μM or 10 μM. The compounds were diluted from stock solutions in DMSO and the final DMSO concentration of the test compounds on cells was 0.1%. After 24 h of incubation with the test compounds the supernatant conditioned media was collected and the Aβ40 levels were determined using a sandwich ELISA. The IC50 of the compound was calculated from the percent of control or percent inhibition of Aβ40 as a function of the concentration of the test compound.
The sandwich ELISA to detect Aβ40 was performed in 96 well microtiter plates, which were pre-treated with goat anti-rabbit IgG (Pierce). The capture and detecting antibody pair that were used to detect Aβ40 from cell supernatants were affinity purified pAb40 (Biosource) and biotinylated 6E10 (Signet Labs Inc.), respectively. The optimal concentration for the pAb40 antibody was 3 μg/ml in Superblock/TBS (Pierce) that was supplemented with 0.05% Tween 20 (Sigma). […] Cellular supernatants were incubated with the capture antibody for 3 h at 4° C., followed by 3 wash steps in TBS-tween (0.05%). The detecting antibody incubation was for 2 h at 4° C., again followed by the wash steps as described previously. The final readout of the ELISA is Time-Resolved Fluorescence (counts per minute) using Delfia reagents Streptavidin-Europium and Enhancement solutions (Perkin Elmer) and the Victor 2 multilabel counter (Perkin Elmer).

Sequence of human recombinant BACE1 (P56817 46-501): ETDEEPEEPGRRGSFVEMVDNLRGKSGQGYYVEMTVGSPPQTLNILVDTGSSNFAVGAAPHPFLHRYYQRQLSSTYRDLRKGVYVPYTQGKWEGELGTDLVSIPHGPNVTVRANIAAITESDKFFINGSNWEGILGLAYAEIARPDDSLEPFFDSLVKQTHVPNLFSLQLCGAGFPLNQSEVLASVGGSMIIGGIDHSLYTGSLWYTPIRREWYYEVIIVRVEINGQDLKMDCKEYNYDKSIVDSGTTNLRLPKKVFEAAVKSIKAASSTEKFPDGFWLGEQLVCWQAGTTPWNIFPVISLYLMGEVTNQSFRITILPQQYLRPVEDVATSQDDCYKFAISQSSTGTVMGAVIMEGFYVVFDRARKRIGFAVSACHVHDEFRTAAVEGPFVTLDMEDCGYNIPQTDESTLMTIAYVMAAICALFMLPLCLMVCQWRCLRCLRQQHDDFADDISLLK
Sequence of human recombinant BACE2 (Q9Y5Z0 63-518): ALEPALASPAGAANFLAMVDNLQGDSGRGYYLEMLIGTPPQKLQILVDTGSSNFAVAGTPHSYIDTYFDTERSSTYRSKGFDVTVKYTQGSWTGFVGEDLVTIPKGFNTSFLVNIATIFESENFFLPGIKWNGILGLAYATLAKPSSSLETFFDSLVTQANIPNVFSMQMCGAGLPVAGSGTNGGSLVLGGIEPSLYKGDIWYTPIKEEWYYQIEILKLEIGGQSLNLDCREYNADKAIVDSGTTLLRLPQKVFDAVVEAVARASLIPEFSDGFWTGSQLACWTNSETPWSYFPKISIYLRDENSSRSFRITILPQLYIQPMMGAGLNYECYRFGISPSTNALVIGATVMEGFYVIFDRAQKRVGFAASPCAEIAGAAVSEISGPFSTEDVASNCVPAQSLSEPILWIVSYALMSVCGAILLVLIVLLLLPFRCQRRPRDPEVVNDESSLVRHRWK
Sequence of Recombinant Cat D (P07339 65-412): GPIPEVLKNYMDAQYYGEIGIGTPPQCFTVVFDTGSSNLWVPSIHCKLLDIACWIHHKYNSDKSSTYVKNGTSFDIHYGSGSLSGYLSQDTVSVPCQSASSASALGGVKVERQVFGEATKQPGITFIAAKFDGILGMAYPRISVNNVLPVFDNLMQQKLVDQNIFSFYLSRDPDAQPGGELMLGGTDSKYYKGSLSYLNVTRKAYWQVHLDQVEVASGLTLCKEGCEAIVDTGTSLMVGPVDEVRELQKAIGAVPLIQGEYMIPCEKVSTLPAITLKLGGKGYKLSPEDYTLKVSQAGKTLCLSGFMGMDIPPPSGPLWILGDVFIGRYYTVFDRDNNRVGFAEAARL

Compound	IC50 (human recombinant BACE1) [µM]	IC50 (Recombinant Cat D) [µM]	IC50 (human recombinant BACE2) [µM]	IC50 [1] [µM]	IC50 (human recombinant BACE1; BACE1 FRET enzyme assay) [µM]	IC50 (Recombinant Cat D; Cathepsin D FRET enzyme assay) [µM]	IC50 (human recombinant BACE2; BACE2 FRET enzyme assay) [µM]	IC50 ([1]; BACE1 cell-based assay) [µM]
NC1=N[C@](CF)(c2cc(NC(=O)c3ccc(Cl)cn3)ccc2F)[C@@H]2[C@H]3CSC[C@]32S1 (mixture of isomers) [Example 752, N-(3-((4S,4aR,7aS)-2-amino-4-(fluoromethyl)-4a,4b,5,7-tetrahydro-4H-thieno[3′,4′:2,3]cyclopropa[1,2-e][1,3]thiazin-4-yl)-4-fluorophenyl)-5-chloropicolinamide and N-(3-((4S,4aS,7aR)-2-amino-4-(fluoromethyl)-4a,4b,5,7-tetrahydro-4H-thieno[3′,4′:2,3]cyclopropa[1,2-e][1,3]thiazin-4-yl)-4-fluorophenyl)-5-chloropicolinamide]	0.0068	26.4	0.00709	0.0522	–	–	–	–
COC[C@]12C[C@H]1[C@@](C)(c1cc(NC(=O)c3cnc(OC(C)C(F)(F)F)cn3)ccc1F)N=C(N)S2 (mixture of isomers) [Example 968, N-(3-((1S,5S,6S)-3-amino-1-(methoxymethyl)-5-methyl-2-thia-4-azabicyclo[4.1.0]hept-3-en-5-yl)-4-fluorophenyl)-5-((1,1,1-trifluoropropan-2-yl)oxy)pyrazine-2-carboxamide]	0.129	> 400	1.1	0.12	–	–	–	–
C=C[C@@H](C)Oc1cnc(C(=O)Nc2ccc(F)c([C@@]3(C)N=C(N)S[C@@]4(COC)C[C@H]43)c2)cn1 (mixture of isomers) [Example 1051, N-(3-((1S,5S,6S)-3-amino-1-(methoxymethyl)-5-methyl-2-thia-4-azabicyclo[4.1.0]hept-3-en-5-yl)-4-fluorophenyl)-5-(((1R)-1-methyl-2-propen-1-yl)oxy)-2-pyrazinecarboxamide, N-(3-((1S,5S,6S)-3-amino-1-(methoxymethyl)-5-methyl-2-thia-4-azabicyclo[4.1.0]hept-3-en-5-yl)-4-fluorophenyl)-5-(((1S)-1-methyl-2-propen-1-yl)oxy)-2-pyrazinecarboxamide]	0.033	> 400	0.345	0.035	–	–	–	–
COC[C@]12C[C@H]1[C@@](C)(c1cc(NC(=O)c3cnc(O[C@@H](C)C(F)(F)F)cn3)ccc1F)N=C(N)S2 (single isomer, unassigned) [Example 995]	0.101	1940	1.77	0.164	–	–	–	–
COC[C@]12C[C@H]1[C@@](C)(c1cc(NC(=O)c3cnc(O[C@H](C)C(F)(F)F)cn3)ccc1F)N=C(N)S2 (single isomer, unassigned) [Example 996]	0.123	1640	0.807	0.12	–	–	–	–
NC1=N[C@](CF)(c2cc(Nc3nncc4cc(Br)cnc34)ccc2F)C2C[C@@H]2S1 (stereo in doubt) [Example 67, N-(3-((1S,5S,6S)-3-amino-5-(fluoromethyl)-2-thia-4-azabicyclo[4.1.0]hept-3-en-5-yl)-4-fluorophenyl)-3-bromopyrido[2,3-d]pyridazin-8-amine]	–	–	–	–	0.0137	738	0.00616	0.0208
NC1=N[C@](CF)(c2cc(Nc3nccc4nc(C(F)(F)F)cnc34)ccc2F)C2C[C@@H]2S1 (stereo in doubt) [Example 87, N-(3-((1S,5S,6S)-3-amino-5-(fluoromethyl)-2-thia-4-azabicyclo[4.1.0]hept-3-en-5-yl)-4-fluorophenyl)-2-(trifluoromethyl)pyrido[3,4-b]pyrazin-5-amine]	–	–	–	–	0.114	2810	0.271	22.6
COc1cnc2c(Nc3ccc(F)c([C@@]4(CF)N=C(N)S[C@H]5CC54)c3)ncnc2c1 (stereo in doubt) [Example 88, N-(3-((1S,5S,6S)-3-amino-5-(fluoromethyl)-2-thia-4-azabicyclo[4.1.0]hept-3-en-5-yl)-4-fluorophenyl)-7-methoxypyrido[3,2-d]pyrimidin-4-amine]	–	–	–	–	0.0416	> 400	0.137	0.0264
Cc1cc(C#N)cnc1C(=O)Nc1ccc(F)c([C@@]2(CF)N=C(N)S[C@H]3C[C@H]32)c1 [Example 3, N-(3-((1S,5S,6S)-3-amino-5-(fluoromethyl)-2-thia-4-azabicyclo[4.1.0]hept-3-en-5-yl)-4-fluorophenyl)-5-cyano-3-methylpicolinamide]	–	–	–	–	0.00838	437	0.0108	0.00522
COC[C@]12C[C@H]1[C@@](C)(c1cc(Nc3nccc4cc(Cl)cnc34)cc(F)c1F)N=C(N)S2 [Example 24, N-(3-((1S,5S,6S)-3-amino-1-(methoxymethyl)-5-methyl-2-thia-4-azabicyclo[4.1.0]hept-3-en-5-yl)-4,5-difluorophenyl)-3-chloro-1,7-naphthyridin-8-amine]	–	–	–	–	0.00188	189	–	0.0191
CCOC(=O)[C@]12C[C@H]1[C@@](C)(c1cc(Nc3nccc4cc(Cl)cnc34)cc(F)c1F)N=C(N)S2 [Example 25, (1S,5S,6S)-ethyl 3-amino-5-(5-((3-chloro-1,7-naphthyridin-8-yl)amino)-2,3-difluorophenyl)-5-methyl-2-thia-4-azabicyclo[4.1.0]hept-3-ene-1-carboxylate]	–	–	–	–	0.0025	48.7	–	0.571
N#Cc1cnc2c(Nc3cc(F)c(F)c([C@@]4(CF)N=C(N)S[C@@H]5C[C@@H]54)c3)nccc2c1 [Example 27, 8-((3-((1R,5S,6R)-3-amino-5-(fluoromethyl)-2-thia-4-azabicyclo[4.1.0]hept-3-en-5-yl)-4,5-difluorophenyl)amino)-1,7-naphthyridine-3-carbonitrile]	–	–	–	–	0.0235	33.5	–	0.013
C[C@]1(c2cc(Nc3nccc4cc(Cl)cnc34)cc(F)c2F)N=C(N)S[C@@]2(CO)C[C@H]21 [Example 30, ((1S,5S,6S)-3-amino-5-(5-((3-chloro-1,7-naphthyridin-8-yl)amino)-2,3-difluorophenyl)-5-methyl-2-thia-4-azabicyclo[4.1.0]hept-3-en-1-yl)methanol]	–	–	–	–	0.00152	958	< 0.00203	0.00851
NC1=N[C@](CF)(c2cc(NC(=O)c3ccc(Cl)cn3)cc(F)c2F)[C@@H]2C[C@]2(CO)S1 [Example 31, N-(3-((1S,5S,6S)-3-amino-5-(fluoromethyl)-1-(hydroxymethyl)-2-thia-4-azabicyclo[4.1.0]hept-3-en-5-yl)-4,5-difluorophenyl)-5-chloropicolinamide]	–	–	–	–	0.00206	1400	0.00109	0.00226
C#CCOc1cnc2c(Nc3cc(F)c(F)c([C@@]4(C)N=C(N)S[C@H]5C[C@H]54)c3)nccc2c1 [Example 32, N-(3-((1S,5S,6S)-3-amino-5-methyl-2-thia-4-azabicyclo[4.1.0]hept-3-en-5-yl)-4,5-difluorophenyl)-3-(2-propyn-1-yloxy)-1,7-naphthyridin-8-amine]	–	–	–	–	0.0212	138	0.304	0.0836
C#CCCOc1cnc(C(=O)Nc2ccc(F)c([C@@]3(C)N=C(N)S[C@@]4(COC)C[C@H]43)c2)cn1 [Example 1048, N-(3-((1S,5S,6S)-3-amino-1-(methoxymethyl)-5-methyl-2-thia-4-azabicyclo[4.1.0]hept-3-en-5-yl)-4-fluorophenyl)-5-(3-butyn-1-yloxy)-2-pyrazinecarboxamide]	0.0078	–	0.152	0.0095	–	–	–	–

Reference: patent US20160046618A1, “Cyclopropyl Fused Thiazin-2-Amine Compounds as Beta-Secretase Inhibitors and Methods of Use” (AMGEN INC., priority 2014, published 2016)
